From PubChem BioAssay (NCI)
Where “and” joins values, the source holds several entries; their conditions need not be identical. Equal entries are not always repeated.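 Interpolation was linear, between the two tested concentrations surrounding the appropriate level; five concentrations were tested over 48 hours in 96-well plates. Abbreviation: GI50, concentration required for 50% inhibition of growth. Definition used: TGI = concentration required for complete inhibition of growth.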

Columns and labels:
Assay in all cases: DTP human tumour cell line panel, 48 h
COLO 205 colon = test system: COLO 205 colon
DU-145 prostate = test system: DU-145 prostate
HCT-15 colon = test system: HCT-15 colon
HL-60(TB) leukemia = test system: HL-60(TB) leukemia
HS 578T breast = test system: HS 578T breast
HT29 colon = test system: HT29 colon
MDA-MB-231 breast = test system: MDA-MB-231 breast
NCI-H23 lung = test system: NCI-H23 lung
SK-MEL-2 melanoma = test system: SK-MEL-2 melanoma
UO-31 renal = test system: UO-31 renal
DLD-1 colon = test system: DLD-1 colon
DMS 114 small cell lung = test system: DMS 114 small cell lung
DMS 273 small cell lung = test system: DMS 273 small cell lung
M19-MEL melanoma = test system: M19-MEL melanoma
XF 498 CNS = test system: XF 498 CNS

Structure (SMILES)	TGI (COLO 205 colon) [µM]	TGI (DU-145 prostate) [µM]	TGI (HCT-15 colon) [µM]	TGI (HL-60(TB) leukemia) [µM]	TGI (HS 578T breast) [µM]	TGI (HT29 colon) [µM]	TGI (MDA-MB-231 breast) [µM]	TGI (NCI-H23 lung) [µM]	TGI (SK-MEL-2 melanoma) [µM]	TGI (UO-31 renal)	TGI (DLD-1 colon)	TGI (DMS 114 small cell lung) [µM]	TGI (DMS 273 small cell lung)	TGI (M19-MEL melanoma)	TGI (XF 498 CNS) [µM]	GI50 (HT29 colon) [nM]
COC12C=CC(CC1)C(C)(C)C2OS(C)(=O)=O (stereo not given)	> 100	> 100	> 100	> 100	> 100	> 100	> 100	> 100	> 100	> 100 µM	–	–	–	–	–	–
CC(=O)c1[nH]c(Nc2ccc(C)cc2)c(C(=S)Nc2ccccc2)c1N	> 100	34.2	46.1	54.1	52.3	> 100	35.7	42.8	31.9	28.4 µM	–	–	–	–	–	–
COc1ccc(C2=C(Cl)c3cc(OC)c(OC)cc3C2)cc1OC	> 100	–	> 100	> 100	–	> 100	–	> 100	–	> 100 µM	> 100 µM	> 100	> 100 µM	> 100 µM	> 100	–
CNc1ccc([N+](=O)[O-])c2c(NCCCN(C)C)ccnc12	> 100	–	> 100	> 100	–	> 100	–	> 100	> 100	> 100 µM	–	> 100	> 100 µM	> 100 µM	> 100	–
CCOC(=O)C(NC(=O)CC)(Nc1ccc(S(=O)(=O)Nc2ccc(OC)nn2)cc1)C(F)(F)F (stereo not given)	> 100	> 100	> 100	> 100	> 100	> 100	> 100	> 100	> 100	> 100 µM	–	–	–	–	–	–
CN(C)C=NCC(O)c1ccccc1 (stereo not given)	> 100	> 100	> 100	> 100	> 100	> 100	> 100	> 100	> 100	> 100 µM	–	–	–	–	–	–
O=C1O[C@H]2C3C4CCC(C4[C@@H]2I)[C@H]13 (stereo not given in full)	> 100	> 100	> 100	> 100	> 100	> 100	> 100	> 100	> 100	> 100 µM	–	–	–	–	–	–
O=C(NN1C(=O)C(Cl)C1c1ccccc1Cl)c1ccccc1O (stereo not given)	–	–	> 100	> 100	–	> 100	–	–	> 100	> 100 µM	> 100 µM	> 100	–	> 100 µM	> 100	–
O=C1C=C(O)c2c(O)ccc(O)c2C1=O	> 100	> 100	> 100	> 100	> 100	> 100	> 100	> 100	> 100	> 100 µM	–	–	–	–	–	–
COc1cc2c(c(OC)c1OC)-c1ccc(SC)c(=O)cc1[C@@H](NC(=O)c1ccc([N+](=O)[O-])cc1)CC2	25	–	–	0.302	–	–	–	–	–	25 µM and 59.4 µM	25 µM and > 100 µM	0.89	25 µM and > 100 µM	25 µM and > 100 µM	25	< 2.5
